Source: patent publication US11839615B2, “Compounds and methods for treating addiction and related disorders” (Astrocyte Pharmaceuticals, Inc., priority 2018, dated 2023)

How the values were obtained:
[1] = tested on: astrocytes (C8-D1A); experiment: Oxygen consumption rate (OCR), Seahorse; assay type: cell-based
Experimental: FIG. 2: Oxygen Consumption Rate (OCR) is increased by purinergic agonist AST-004. Cultured astrocytes were plated on a standard Seahorse dish (24 well). After establishing basal OCR, purinergic agonist AST-004 or control (antagonist) was added at first arrow. […] The final addition of mitochondrial inhibitors uncovered non-mitochondrial OCR sources.
We previously reported that any agonist stimulating IP3-mediated Ca^2+ increases in astrocytes increased ATP production in astrocytes (1). […] Minimal change was observed under control injections. […] Addition of rotenone and antimycin uncovered non-mitochondrial sources of oxygen consumption, which was subtracted off from all measurements prior to calculations.
OCR was measured to calculate mitochondrial respiration and performed with a Seahorse XF96 extracellular flux analyzer. A 96-well system measures OCR from a monolayer of cultured intact cells, at intervals of ˜5 minutes. Astrocytes were plated on Seahorse microplates at least 2 days prior to OCR measurements. […] Injection of rotenone and antimycin, inhibitors of complex I and III respectively, uncover non-mitochondrial oxygen consumption.

[2] = tested on: astrocytes of transgenic mice expressing the Luciferase-reporter gene (GFAP promoter); experiment: In vivo bioluminescent imaging of ATP in astrocytes after blunt TBI; set-up: species or system mouse; conditions: IP injection, two to 4 days after TBI, vs vehicle
Experimental: FIG. 5: In Vivo Bioluminescent Imaging indicates AST-004 increases ATP. A) Transgenic mice expressing the Luciferase-reporter gene in astrocytes (GFAP promoter) were subjected to blunt TBI (Closed Cortical Impact). Two to 4 days after the initial trauma, mice were IP injected with a synthetic D-luciferin analogue (Cytluc1, 100 ul). Bioluminescent signals were recorded with an IVIS Spectrum Imager, 5 min after Cycluc1 injection (green arrow). Mice were then IP injected with either vehicle or AST-004 at […] (blue arrow), the photon flux immediately measured and then compared to the photon flux at 20 minutes (red arrow).
Transgenic mice expressing the Luciferase-reporter gene in astrocytes (GFAP promoter, Dual-Glo mice, Jackson laboratories) were subjected to blunt TBI (Closed Cortical Impact). Two to 4 days after the initial trauma, mice were IP injected with a synthetic D-luciferin analogue (Cycluc 1) and bioluminescent signals recorded on an IVIS Spectrum Imager (FIG. 5A).

[3] = tested on: astrocytes; experiment: Determination of ATP levels in astrocytes (luciferin-luciferase kit), control or GLUD1 shRNA; assay type: cell-based
Experimental: FIG. 7: GLUD1 Knockdown (KD) in astrocytes blocks P2Y1R and A3R-stimulated increases in ATP. A, B) Cells were treated with P2Y1R agonist MRS2365 for 20 mins in either normal glucose medium (A) or a glucose-free, galactose (B) supplemented media. Galactose forces cells to use oxidative phosphorylation for energy metabolism. […] Intracellular ATP levels were measured with a luciferin-luciferase kit.
P2Y1R and A3R agonists increased mitochondrial ATP production in astrocytes in a manner that was dependent on GLUD1 expression. One possible hypothesis is that glutamate catabolism into α-KG is mediated by GLUD1, which is enhanced by Ca^2+ dependent stimulation of the ICDH and α-KGDH in the TCA cycle. To test this hypothesis, GLUD1 expression levels were reduced in astrocyte cultures by incubating cells with specific shRNA. […] We repeated these experiments in the presence of galactose, a carbon source that forces cells to generate ATP though oxidative phosphorylation, since glycolysis of galactose is ATP neutral.
Cells were transduced with shRNA lentivirus constructs obtained from Santa Cruz (glud1 #145446-V, for Scrambled #108080). Cells were then seeded at single cell/well densities in a 96-well dish and selected for with puromycin. Clones were grown and tested for knockdown by western blot.
Astrocytes were plated at a density of 3000-5000 cells/well in a white, opaque-bottom 96-well dish (Corning). If cells were tested in galactose medium, they were seeded in galactose medium, and left for a minimum of 16 hours before subjected to treatment. Galactose medium was made with glucose-, pyruvate-, phenol-, and glutamine-free DMEM (Gibco) which was then supplemented with 0.9 mg/ml galactose (Sigma), pyruvate (Quality biological, Inc), and 10% dialyzed FBS (Gibco). Treatments were performed for 20 min unless otherwise stated and concentrations of drugs described elsewhere. Drugs used: MRS2365, MRS2500, AST-004, 3-Propyl-6-ethyl-5-[(ethylthio)carbonyl]-2 phenyl-4-propyl-3-pyridine carboxylate (MRS1523) (Tocris Bioscience), sodium dichloroacetate (DCA) (Sigma Aldrich), Oligomycin (Sigma Aldrich), 1-(2-(2-tert-Butylphenoxy)pyridin-3-yl)-3-(4-(trifluoromethoxy)phenyl)urea (BPTU) (Millipore), and Ruthenium 360 (Cal Biochem). Next, media was removed from cells, and 100 μl fresh media immediately added. Then, 95 μl of mixed luminescence substrate from the ATPlite 1-Step kit were added (Perkin-Elmer). Plates were wrapped in aluminum foil and shaken for 3 min on a plate rotator before reading on a luminometer. Readings were normalized to protein as determined by Coomassie Plus Bradford assay (Thermo Fisher). All statistics were analyzed using GraphPad Prism software.

[4] = tested on: cocaine self-administering mice; experiment: Cocaine self-administration; assay type: in vivo, mouse; conditions: osmotic minipump, 100 μL at 2.78 mM
Experimental: Data that are normalized to each mouse's individual cocaine intake at baseline. Mice were trained to self-administer cocaine (0.5 mg/kg/infusion) on a fixed ratio 3 schedule in 2-hr daily sessions. After their intake stabilized (baseline) mice were implanted with osmotic minipumps on day 0 either containing saline (filled circles) or the drug AST-004 (open circles), n=5 mice in each group. Mice were given a day off (day 7), then returned to self-administration in daily sessions. Note the number of infusions goes down in the AST-004 treated mice, while saline treated mice increased infusions.
We used procedures adapted from our recently published work that describes i.v. cocaine self-administration in fully fed mice (6, 7). Male C57BL/6J mice (6 to 7-week-old) purchased from Jackson labs and were kept on a 12/12-hour reverse light-dark cycle (lights off at 0900 h) with ad libitum access to food and water. Cocaine hydrochloride (generously provided by the NIDA drug supply program, Bethesda, MD) was dissolved in sterile physiological saline (NaCl 0.9%). Cocaine was prepared at a concentration that delivers 0.5 mg/kg/12 μL per infusion, based on a typical weight of a young adult mouse (28 g). Mice were implanted with an indwelling catheter in the right jugular vein. […]

[5] = tested on: cultured astrocytes; experiment: Ca2+ measurements in dye-loaded (Cal520) cultured astrocytes; assay type: cell-based, mouse
Experimental: FIG. 1: AST-004 increases intracellular Ca^2+ in cultured astrocytes. A) Image of resting Ca^2+ levels in dye-loaded (Cal520) astrocytes. B) Spatio-temporal plot of Ca^2+ fluorescence for the vertical line in panel A. AST-004 was added at 2 min. Note the oscillatory Ca^2+ responses for over 6 minutes. C) Plot of integrated Ca^2+ fluorescence intensities (DF/F0) at the indicated A3R agonist concentrations. Values are mean+/−SEM (data pooled from 3 experiments at each concentration). Images were acquired on the Nikon Sweptfield confocal microscope.
The low level stimulation of Ca2+ release persisted throughout the recording (FIG. 1A,B). It was not blocked by pertussis toxin treatment, consistent with Gq-coupling. The integrated Ca^2+ response was also dose-dependent (FIG. 1C) and present in astrocytes cultured from mouse, rat, pig and human brain tissue.
Protocol was modified from McCarthy et al., 1980 (4). Briefly, mice were anesthetized with isoflurane then cervically dislocated. Brains were quickly removed and chopped in trypsin, and allowed to incubate at 37° C. for 30 mins. DMEM/F-12 Media with 10% FCS and primocin was added and brains were triturated to homogenization and filtered through […] mesh, and seeded into culture flasks. The next day, homogenates were transferred to a new flask, and previous flasks had new media added. Cells were grown for 3-4 weeks, with DMEM/F-12 media changes every 3-4 days until cells were 70% confluent.
Ca^2+ activity was imaged as previously described (5). In brief, astrocytes were seeded on glass cover slips 3 and 4 nights before each experiment. Culture dishes were incubated with a fluorescent Ca^2+ sensitive dye (10 μM, Cal520, cell permeant, Abcam) 30 min prior to the experiment. Images were acquired with a confocal laser-scanning microscope at the rate of 1.5 images/s. Data were obtained in recording buffer (120 mM NaCl, 4.5 mM KCl, 1 mm CaCl2), 2 mM MgCl2, 10 mM HEPES, pH 7.4) at room temperature. Images were analyzed with Image J and NIS Elements.

[6] = tested on: traumatic brain injury (TBI); experiment: Traumatic brain injury (TBI), GFAP expression by Western blot; conditions: for TBI induced increases in GFAP expression: treatment 30 min post-TBI, ipsilateral brain homogenates and plasma at day 7, vs TBI untreated
Experimental: Mice underwent sham or TBI (on Ipsilateral side of brain) and received treatments as labeled 30 min post-TBI. Plasma was obtained from mice at 7 days post-injury, then sacrificed to obtain brain homogenates from the ipsilateral and contralateral hemispheres (middle third). Western blot analysis were normalized to actin. (A and C) Representative blots are shown for Ipsilateral brain homogenates and the plasma at day 7. (B and D) Data were pooled from 3 distinct experiments (N=number of mice per treatment) and plotted as bar histograms, shown as mean of control+/−SEM. *p<0.05 and ** p<0.01 from TBI untreated (dark gray bar).

[7] = tested on: photothrombosis-induced stroke; experiment: Photothrombotic induced model of stroke, lesion volume by TTC staining; assay type: in vivo, mouse
[8] = 20 min treatment, normal glucose medium

Question: With CSc1nc(N)c2ncn([C@H]3[C@H](O)[C@H](O)[C@]4(CO)C[C@H]34)c2n1 [AST-004] as the compound, how does the “ATP production (OCR revealed by oligomycin)” value ([1]; 400 nM) read?
Answer: significantly greater

Question: And the “basal respiration (OCR)” value ([1]; after addition to the bath at 15 minutes, vs control injections)?
Answer: increased

Question: What about the “maximal respiration (OCR after FCCP)” value ([1]; uncoupling by FCCP) of the same compound?
Answer: significantly higher

Question: What about the “photon flux levels (ATP-production in astrocytes)” value [2] of the same compound?
Answer: significantly higher

Question: And the “ATP levels, control cells (scrambled shRNA)” value [3, 8]?
Answer: increased ATP levels in a GLUD1-dependent manner

Question: And the cocaine self-administration ([4]; FR3, 2-hr daily sessions, vs saline)?
Answer: significantly reduces

Question: What about the “cocaine intake normalized to baseline” value ([4]; over 2 weeks, n=5) of the same compound?
Answer: approximately 60 % of baseline

Question: And the “integrated Ca2+ response” value ([5]; astrocytes cultured from mouse, rat, pig and human brain tissue)?
Answer: dose-dependent

Question: What about the “intracellular Ca2+” value ([5]; cultured astrocytes, Cal520 dye) of the same compound?
Answer: stimulates intracellular Ca2+

Question: And the “stimulation of Ca2+ release under pertussis toxin treatment” value ([5]; pertussis toxin treatment, consistent with Gq-coupling)?
Answer: not blocked

Question: And the “neuroprotection after traumatic brain injury (TBI)” value ([6]; mice)?
Answer: neuroprotective

Question: What about the “TBI induced increases in GFAP expression” value [6] of the same compound?
Answer: reduced

Question: And the stroke infarction volume ([7]; 0.2 mg/kg, intraperitoneally within 30 min post stroke, 24 hours post-stroke, vs vehicle)?
Answer: significantly reduced

Question: With CCCOC(=O)c1c(-c2ccccc2)nc(CC)c(C(=O)SCC)c1CCC [MRS1523, 3-Propyl-6-ethyl-5-[(ethylthio)carbonyl]-2 phenyl-4-propyl-3-pyridine carboxylate, reference compound] as the compound, how does the “reduction of stroke infarction volume by AST-004 after antagonist pretreatment” value ([7]; pretreatment with the A3R antagonist) read?
Answer: blocked

Question: For CSc1nc(N)c2ncn([C@H]3[C@H](O)[C@H](O)[C@]4(COP(=O)(O)OP(=O)(O)O)C[C@H]34)c2n1 [MRS2365], which “ATP levels, control cells (scrambled shRNA), galactose medium” value ([3]; 20 min treatment, glucose-free, galactose supplemented media) is on record?
Answer: significantly increased

Question: And the “ATP levels, astrocytes with reduced levels of GLUD1 (GLUD1 shRNA)” value [3, 8]?
Answer: not responsive

Question: What about the “ATP levels, control cells (scrambled shRNA)” value [3, 8] of the same compound?
Answer: significantly increased

Question: What about the “ATP levels, astrocytes with reduced GLUD1 levels, galactose medium” value ([3]; in the presence of galactose) of the same compound?
Answer: similarly non-responsive

Question: What about the “TBI induced increases in GFAP expression” value [6] of the same compound?
Answer: reduced
